Measurements published in PubChem BioAssay (NCI).
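In this assay, cells in 96-well plates receive the compound at five concentrations for 48 hours. Endpoints are linearly interpolated between the surrounding concentrations. TGI marks complete inhibition of growth.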

What was measured:
Assay in all cases: NCI tumour cell line growth inhibition, 48 h
OVCAR-3 ovarian = test system: OVCAR-3 ovarian
NCI-H522 lung = test system: NCI-H522 lung
SW-620 colon = test system: SW-620 colon
ACHN renal = test system: ACHN renal
RPMI-8226 leukemia = test system: RPMI-8226 leukemia
SN12C renal = test system: SN12C renal
CAKI-1 renal = test system: CAKI-1 renal
M14 melanoma = test system: M14 melanoma
U251 CNS = test system: U251 CNS
HCT-15 colon = test system: HCT-15 colon
MALME-3M melanoma = test system: MALME-3M melanoma
UO-31 renal = test system: UO-31 renal
HT29 colon = test system: HT29 colon
BT-549 breast = test system: BT-549 breast
T-47D breast = test system: T-47D breast
NCI-H226 lung = test system: NCI-H226 lung
SR leukemia = test system: SR leukemia
MDA-MB-231 breast = test system: MDA-MB-231 breast
EKVX NSCLC = test system: EKVX NSCLC
SK-MEL-2 melanoma = test system: SK-MEL-2 melanoma
SK-OV-3 ovarian = test system: SK-OV-3 ovarian
UACC-62 melanoma = test system: UACC-62 melanoma
LOX IMVI melanoma = test system: LOX IMVI melanoma
UACC-257 melanoma = test system: UACC-257 melanoma
SK-MEL-5 melanoma = test system: SK-MEL-5 melanoma
MDA-MB-435 = test system: MDA-MB-435
SF-268 CNS = test system: SF-268 CNS
HCT-116 colon = test system: HCT-116 colon
COLO 205 colon = test system: COLO 205 colon
SK-MEL-28 melanoma = test system: SK-MEL-28 melanoma
HOP-92 NSCLC = test system: HOP-92 NSCLC
OVCAR-4 ovarian = test system: OVCAR-4 ovarian
DU-145 prostate = test system: DU-145 prostate
SF-295 CNS = test system: SF-295 CNS
A549 NSCLC = test system: A549 NSCLC
NCI-H23 lung = test system: NCI-H23 lung
OVCAR-5 ovarian = test system: OVCAR-5 ovarian
HOP-62 NSCLC = test system: HOP-62 NSCLC
IGROV1 ovarian = test system: IGROV1 ovarian
786-0 renal = test system: 786-0 renal
OVCAR-8 ovarian = test system: OVCAR-8 ovarian
SF-539 CNS = test system: SF-539 CNS
PC-3 prostate = test system: PC-3 prostate
KM12 colon = test system: KM12 colon
HCC-2998 colon = test system: HCC-2998 colon
A498 renal = test system: A498 renal
TK-10 renal = test system: TK-10 renal
HL-60(TB) leukemia = test system: HL-60(TB) leukemia
HS 578T breast = test system: HS 578T breast
NCI-H460 lung = test system: NCI-H460 lung
RXF 393 renal = test system: RXF 393 renal
NCI/ADR-RES ovarian = test system: NCI/ADR-RES ovarian
MCF7 breast = test system: MCF7 breast
MOLT-4 leukemia = test system: MOLT-4 leukemia
CCRF-CEM leukemia = test system: CCRF-CEM leukemia
SNB-19 CNS = test system: SNB-19 CNS
MDA-N = test system: MDA-N

Measured: TGI

COC(=O)C1=COC2OC3CC1C2C(C)O3 (configuration not stated)
> 100 µM: all assays above
